Data on 22 substances can be found in US20110039762A1, “TARGETED ANTIMICROBIAL MOIETIES” (C3 JIAN, INC., priority 2009, published 2011).

Entries after “also recorded” stand apart in the source; their conditions may differ.

For one experiment, the system named is microorganisms. Kind of experiment: Peptides having multiple activities (targeting/binding, antimicrobial, growth or phenotype altering). The source says: In certain embodiments, peptides described herein can have multiple activities. Thus for example, a peptide can have both binding/targeting activity and antimicrobial activity. Such peptides can be used, e.g., in a chimeric construct, for any or all of these properties. Thus, for example, a peptide designated “B” in Table 8 can be used as a targeting peptide. If it is also designated G or M it can also be used for antimicrobial activity.

The test system of experiment [1] is microorganisms (e.g., bacteria, yeasts, fungi). Kind of experiment: Targeting peptide binding to target microorganisms (Table 3). The following applies: preferably 1x PBS; for Target(s) (microorganisms bound by the targeting peptide): peptide binding in aqueous buffers varied by peptide solubility.
The next experiment relates to S. epidermidis. In words: Kill or inhibit growth/proliferation; morphology, biofilm and growth disruption (Tables 5, 6). Further: test concentration or dose not given here. On the set-up: key: A: Peptide aggregates; B: Less hyphal formation; Clumps; Diffuse clumps and small polyps; F: Diffuse growth; H: Thin; I: Growth inhibition; Microcolony formation; Rippled; Small polyps; Thick; W: Halo formation on top, microlonies on bottom. Type of experiment: cell-based, Staphylococcus epidermidis.

The subject of another experiment is B. subtilis. Described as above. Type of experiment: cell-based, Bacillus subtilis. On the set-up: key: A: Peptide aggregates; B: Less hyphal formation; Clumps; Diffuse clumps and small polyps; F: Diffuse growth; H: Thin; I: Growth inhibition; Microcolony formation; Rippled; Small polyps; Thick; W: Halo formation on top, microlonies on bottom.
The next experiment concerns MRSA. Described as above. Format: cell-based, Methicillin-resistant Staphylococcus aureus. On the set-up: key: A: Peptide aggregates; B: Less hyphal formation; Clumps; Diffuse clumps and small polyps; F: Diffuse growth; H: Thin; I: Growth inhibition; Microcolony formation; Rippled; Small polyps; Thick; W: Halo formation on top, microlonies on bottom. Further: test concentration or dose not given here.
The next experiment concerns C. jejuni. Described as above. Type of experiment: cell-based, Campylobacter jejuni. The arrangement: key: A: Peptide aggregates; B: Less hyphal formation; Clumps; Diffuse clumps and small polyps; F: Diffuse growth; H: Thin; I: Growth inhibition; Microcolony formation; Rippled; Small polyps; Thick; W: Halo formation on top, microlonies on bottom. Further: test concentration or dose not given here.
Another experiment concerns S. pneumoniae. The description is as above. Type of experiment: cell-based, Streptococcus pneumoniae. On the set-up: key: A: Peptide aggregates; B: Less hyphal formation; Clumps; Diffuse clumps and small polyps; F: Diffuse growth; H: Thin; I: Growth inhibition; Microcolony formation; Rippled; Small polyps; Thick; W: Halo formation on top, microlonies on bottom.
The mark [2] stands for this setting: microorganism(s) the targeting peptide binds, binding in aqueous buffers depending on peptide solubility.
Setting [3] is: microorganism(s) the targeting peptide binds, peptide binding conducted in aqueous buffers varied by peptide solubility.
Wherever Organism, effect (morphology, biofilm and growth disruption) is given: test concentration or dose not given here.
Wherever Organism, effect is given: test concentration or dose not given here.

Regarding “PF-301: peptide having multiple activities (GIVLIGLKLIPLLANVLN; Peptide with targeting and/or antimicrobial activity)”, the Activities result in the experiment with microorganisms is reported as “G B”. In addition, the “Target(s)” value in experiment [1] (setting [2]) was “C. difficile”. Moreover, the figures for the “Organism, effect” value in the experiment with S. epidermidis and with B. subtilis were “S. epidermidis (C)” and “B. subtilis (C)”, respectively.

Regarding “PF-561 (ESLEADVQAELDTEAAKYPALPASF; Peptide with targeting and/or antimicrobial activity)”, the “Organism, effect” value in the experiment on MRSA is reported as “MRSA (M)”; in the experiment on B. subtilis it was “B. subtilis (D)”.

For the substance “PF-559: peptide having multiple activities (chain 1 SRPGKPGGVSIDVSRDRQDILSNYP; chain 2 SRPGKPGGVSIDVSRDRQDILSNYP; Peptide with targeting and/or antimicrobial activity)”, the results for the “Organism, effect” value with C. jejuni and in the experiment with B. subtilis were “C. jejuni (A)” and “B. subtilis (C)”, respectively. Further, the Activities result in the experiment on microorganisms is on record as “G B”. Moreover, the “Target(s)” value in experiment [1] (setting [3]) is on record as “S. epidermidis; also recorded: M. luteus; also recorded: C. albicans; also recorded: C. jeikeium; also recorded: C. jejuni”.

Consider “PF-670 (chain 1 TVIVAPMHSGV; chain 2 TVIVAPMHSGV; Peptide with targeting and/or antimicrobial activity)”, for which the entries for the “Organism, effect (morphology, biofilm and growth disruption)” value in the experiment on S. pneumoniae and with B. subtilis were “S. pneumoniae (H)” and “B. subtilis (H)”, respectively.

As for “PF-565 (RAEAEAQRQAEADAKRKAEEAARL; Peptide with targeting and/or antimicrobial activity)”, the figures for the “Organism, effect” value in the experiment on MRSA and in the experiment on B. subtilis were “MRSA (C)” and “B. subtilis (D)”, respectively.

On to “PF-335 (AAYPIEDWSDWYEDFFIMLSNI; Peptide with targeting and/or antimicrobial activity)”, for which the “Organism, effect” value in the experiment on S. epidermidis is listed as “S. epidermidis (C)”; in the experiment with B. subtilis, “B. subtilis (C)”.

For “PF-297: peptide having multiple activities (ISKGIDDIVYVINKILSIGNIFKIIKRK; Peptide with targeting and/or antimicrobial activity)”, the Activities entry in the experiment on microorganisms is reported as “G B”. Further, in experiment [1] (setting [2]), the “Target(s)” value was “S. epidermidis; also recorded: B. subtilis; also recorded: B. fragilis”. Besides, the “Organism, effect” value in the experiment on S. epidermidis is reported as “S. epidermidis (C)”; in the experiment on B. subtilis, “B. subtilis (C)”.

In the case of “PF-292: peptide having multiple activities (SFVSTTVRLIFEESKRYKF; Peptide with targeting and/or antimicrobial activity)”, the Activities result with microorganisms was “G B”. Also, the “Target(s)” value in experiment [1] (setting [2]) is “S. epidermidis; also recorded: B. subtilis; also recorded: B. fragilis”. Further, the “Organism, effect” value is “S. epidermidis (C)” with S. epidermidis and “B. subtilis (C)” in the experiment on B. subtilis.

For the substance “SIGSMIGMYSFRHKTKHIKFTFGIPFILFLQFLLVYFYILK [PF-319]”, in the experiment on microorganisms, the Activities result is on record as “G B”. In addition, the “Target(s)” value in experiment [1] (setting [2]) is given as “S. epidermidis; also recorded: B. subtilis; also recorded: C. difficile”. Further, the “Organism, effect” value in the experiment on S. epidermidis was “S. epidermidis (C)”; with B. subtilis, “B. subtilis (C)”.

For “PF-339 (KKIDILINKYMYLSK; Peptide with targeting and/or antimicrobial activity)”, the “Organism, effect” value in the experiment on S. epidermidis is “S. epidermidis (C)”; in the experiment with B. subtilis it was “B. subtilis (C)”.

As for “PF-550: peptide having multiple activities (chain 1 STENGWQEFESYADVGVDPRRYVPL; chain 2 STENGWQEFESYADVGVDPRRYVPL; Peptide with targeting and/or antimicrobial activity)”, the Activities entry with microorganisms was “G B”. Moreover, the “Target(s)” value in experiment [1] (setting [3]) is recorded as “S. pneumoniae”. The “Organism, effect” value with B. subtilis is “B. subtilis (D)”.

Consider “PF-549: peptide having multiple activities (chain 1 TGIGPIARPIEHGLDS; chain 2 TGIGPIARPIEHGLDS; Peptide with targeting and/or antimicrobial activity)”, for which the Activities result in the experiment with microorganisms is “G B”. For the same substance, the “Organism, effect” value is reported as “MRSA (C)” in the experiment with MRSA and “B. subtilis (D)” with B. subtilis. Besides, the “Target(s)” value in experiment [1] (setting [3]) is “E. coli; also recorded: C. albicans; also recorded: S. pneumoniae; also recorded: C. jeikeium”.

Take “PF-552: peptide having multiple activities (chain 1 ELDKADAALGPAKNLAPLDVINRS; chain 2 ELDKADAALGPAKNLAPLDVINRS; Peptide with targeting and/or antimicrobial activity)”: the Activities entry with microorganisms is on record as “G B”. The “Target(s)” value in experiment [1] (setting [3]) is reported as “S. pneumoniae”. In addition, the “Organism, effect” value with B. subtilis is on record as “B. subtilis (D)”.

On to “PF-306: peptide having multiple activities (GCILPHKKDNYNYIMSKFQDLVKITSKK; Peptide with targeting and/or antimicrobial activity)”, for which the Activities entry with microorganisms is recorded as “G B”. Also, the “Target(s)” value in experiment [1] (setting [2]) is “C. difficile”. Besides, the “Organism, effect” value in the experiment with B. subtilis is recorded as “B. subtilis (C)”.

Regarding “PF-572: peptide having multiple activities (chain 1 WRASKGLPGFKAG; chain 2 WRASKGLPGFKAG; Peptide with targeting and/or antimicrobial activity)”, the results for the “Organism, effect” value in the experiment on S. pneumoniae and with B. subtilis were “S. pneumoniae (R)” and “B. subtilis (D)”, respectively. For the same substance, in the experiment with microorganisms, the Activities entry is on record as “G B”. Moreover, the “Target(s)” value in experiment [1] (setting [3]) is listed as “S. epidermidis; also recorded: M. luteus; also recorded: E. coli; also recorded: S. pneumoniae; also recorded: C. jeikeium”.

As for “PF-342 (AFSGVYKTLIVYTRRK; Peptide with targeting and/or antimicrobial activity)”, the “Organism, effect” value with S. epidermidis is reported as “S. epidermidis (C)”; in the experiment on B. subtilis it was “B. subtilis (C)”.

Turning to “PF-296 (GAFGMPSIKTNTICGEKGKFISACDAWLSNLK; Peptide with targeting and/or antimicrobial activity)”, the results for the “Organism, effect” value in the experiment on S. epidermidis and in the experiment with B. subtilis were “S. epidermidis (C)” and “B. subtilis (C)”, respectively.

As to “PF-554: peptide having multiple activities (chain 1 AKNFLTRTAEEIGEQAVREGNINGP; chain 2 AKNFLTRTAEEIGEQAVREGNINGP; Peptide with targeting and/or antimicrobial activity)”, the Activities result with microorganisms was “G B”. For the same substance, the “Target(s)” value in experiment [1] (setting [3]) is “S. pneumoniae”. Further, the “Organism, effect” value in the experiment on B. subtilis is reported as “B. subtilis (D)”.

Regarding “PF-318 (MGRHLWNPSYFVATVSENTEEQIRKYINNQKKQVK; Peptide with targeting and/or antimicrobial activity)”, the results for the “Organism, effect” value in the experiment with S. epidermidis and in the experiment on B. subtilis were “S. epidermidis (C)” and “B. subtilis (C)”, respectively.

For “PF-655: peptide having multiple activities (chain 1 DAPCFDDQFGDLKCQMC; chain 2 DAPCFDDQFGDLKCQMC; Peptide with targeting and/or antimicrobial activity)”, the “Organism, effect (morphology, biofilm and growth disruption)” value with S. pneumoniae was “S. pneumoniae (H)”; in the experiment on MRSA, “MRSA (M)”; with S. epidermidis, “S. epidermidis (R)”; with B. subtilis, “B. subtilis (H)”. Also, the Activities entry in the experiment on microorganisms is recorded as “G B”. For the same substance, the “Target(s) (microorganisms bound by the targeting peptide)” value in experiment [1] was “M. smegmatis”.

“PF-659 (chain 1 TVIST; chain 2 TVIST; Peptide with targeting and/or antimicrobial activity)”: the “Organism, effect (morphology, biofilm and growth disruption)” value in the experiment with S. pneumoniae is listed as “S. pneumoniae (C)”; in the experiment on MRSA it was “MRSA (R)”; with S. epidermidis, “S. epidermidis (M)”; in the experiment on B. subtilis, “B. subtilis (H)”. Moreover, the “Target(s) (microorganisms bound by the targeting peptide)” value in experiment [1] is on record as “Mycobacteria spp”.

For “PF-002: peptide having multiple activities (chain 1 NDDAQ; chain 2 NDDAQ; Peptide with targeting and/or antimicrobial activity)”, the “Organism, effect” value with S. pneumoniae is “S. pneumoniae (H)”; with B. subtilis it was “B. subtilis (R)”. Besides, the Activities entry with microorganisms was “G B”. In addition, in experiment [1] (microorganism the targeting peptide binds, binding in aqueous buffers varied by peptide solubility), the “Target(s)” value is “S. epidermidis; also recorded: P. mirabilis; also recorded: C. albicans; also recorded: C. jeikeium; also recorded: C. jejuni”.
